Key:
Format in all cases: biochemical
Recombinant human CDC25B = assay: CDC25B phosphatase assay, GST fusion protein, fluorescein diphosphate; details: none = 100; 1 hour preincubation; concentration not given (0.3-100 μM tested)
Method: The compounds of the present invention are also capable of inhibiting dual specificity phosphatases, for example CDC25A and CDC25B. Phosphatases CDC25A and CDC25B are disclosed in U.S. Pat. No. 5,441,880. Inhibition of dual specificity phosphatases is defined herein as inhibition of the activity of CDC25A and/or CDC25B at a concentration of 100 μM of the inhibitor compound. In a preferred embodiment, the activity of the phosphatase is inhibited by at least 10%. In more preferred embodiments, the activity of the phophatase is inhibited by at least 25%, or even more preferably, by at least 50%. The ability of the compounds of the present invention to inhibit the phosphatases can be determined by measuring the effect of the compounds on the ability of CDC25 or CDC25B to dephosphorylate a substrate. Appropriate methods are known to those of ordinary skill in the art, and include, for example, calorimetric assays. A suitable assay is described in U.S. Pat. No. 5,441,880, the disclosure of which is incorporated herein by reference. […] The assay may be performed as a rapid calorimetric microtitration plate assay.
Compounds 1a-1r were assessed for ability to inhibit CDC25A and CDC25B activity. Recombinant human CDC25A and CDC25B were obtained as a glutahione-S-transferase (GST) fusion protein using human cDNA and standard molecular biological methods. The cDNA constructs are in a plasmid that is expressed in E. coli under the control of isopropyl-beta-D-[…] (IPTG). The bacterial pellet was disrupted by sonication, and centrifuged at 10,000×g. Using glutathione-agarose beads, the fusion protein was purified from postmicrosomal supernant fraction as described by Baratte et al. (1992) Anticancer Res. 12: 873-880. Phosphatase activity was assayed with a spectrofluorimeter under the following conditions: 1 unit (1 U=amount of protein that induces 33 fluoresence units/minute of product) of fusion protein in a final incubation mixture (150 μL) comprised of 25 mM Tris (pH=8.0), 5 mM EDTA, 33 μg/ml BSA, and 20 μM fluorescein diphosphate in 96-well microtiter plates. Plates were preincubated for 1 hour with 0 (control), 0.3, 1, 3, 10, 30, 100 μM compounds at room temperature. After the 1 hour incubation at room temperature, fluorescence of the fluorescein product (Ex. 485 nm; Em. 530 nm) were measured with a Biosystems Cytofluor II (Framingham, Mass.).

PP1 = assay: Phosphatase activity by [32P] release from phosphorylase-a or phosphohistone (Honkanen method); details: 100 μM inhibitor; none = 100
Method: (§1) It has been found in accordance with the present invention that compounds of formula I are capable of inhibiting serine/threonine protein phosphatases. Inhibition of serine/threonine protein phosphatases is defined herein as inhibition of the activity of one or more of PP1, PP2A or PP3 at a concentration of 100 μM or less of the inhibitor compound. In a preferred embodiment, the activity of the phosphatase is inhibited by at least 10%. In more preferred embodiments, the activity of the phophatase is inhibited by at least 25%, or even more preferably, by at least 50%. Inhibition of PP1, PP2A or PP3 can be assessed by methods known to one of ordinary skill in the art. Suitable assays are described, for example by Honkanen et al. (1994) Toxicon 32:339 and Honkanen et al. (1990) J. Biol. Chem. 265: 19401, the disclosures of which are incorporated herein by reference. Briefly, phosphatase activity is determined by quantifying the [^32 p] released from a ^32 p-labeled substrate such as phosphohistone or phosphorylase-a. Decreased [^32 p] release in the presence of the compounds of the present invention relative to control samples provides a measure of the ability of the compounds of the invention to inhibit PP1, PP2A or PP3.
(§2) Phosphatase activity and the inhibitory activity of the compounds of Table 1 were determined by the method of Honkanen et al. (1994) Toxicon 32:339. Briefly, phosphatase activity against phosphorylase-a or phosphohistone was 25 determined by the quantification of liberated [^32 p]. Assays, 80 μl total volume, containing 50 mM Tris-HCl, pH 7.4, 0.5 mM DTT, 1 mM EDTA (assay buffer) and [^32 p]phosphoprotein (1-2 μM PO4), were conducted as described previously (Honkanen et al., 1991 Mol. Pharmac. 40:577). Dephosphorylation reactions were routinely conducted for 5-10 min. using phosphorylase-a as a substrate and for 10-20 min. using phosphohistone. In all assays the dephosphorylation of substrate was kept to less than 10% of the total phosphorylated substrate available, and the reactions were adjusted to ensure that enzyme activity was linear with respect to enzyme concentration and time. [^32 p]Phosphate liberated by the enzymes was extracted as a phosphomolybdate complex and measured according to the methods of Killilea et al. (1978) Arch. Biochem. Biophys. 191:638. Inhibition of protein phosphatase activity by inhibitors was determined by adding the 100 μM of inhibitors to the enzyme mixture 5-10 min. prior to initiating the reaction with the addition of substrate.

PP2A = PP2A (Bos taurus, UniProt P67774); assay: as above; details: 100 μM inhibitor; none = 100; read-out: PP2A, percent inhibition relative to control (100%)
PP2A, sequence (P67774 whole entry): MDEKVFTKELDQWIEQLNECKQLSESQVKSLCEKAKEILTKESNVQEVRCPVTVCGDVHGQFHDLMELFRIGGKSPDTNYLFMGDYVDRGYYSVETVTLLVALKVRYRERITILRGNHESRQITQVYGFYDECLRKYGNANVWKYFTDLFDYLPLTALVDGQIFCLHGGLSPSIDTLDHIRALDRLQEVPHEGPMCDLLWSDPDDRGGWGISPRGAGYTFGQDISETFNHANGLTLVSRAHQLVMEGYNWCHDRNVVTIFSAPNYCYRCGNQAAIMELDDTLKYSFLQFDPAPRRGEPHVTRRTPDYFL
Method: as §1, §2

PP3 = assay: as above; details: 100 μM inhibitor; none = 100
Method: as §1, §2

`CCCCCCCCCC(=O)NC(CCC(=O)N(C)CCNC(=O)c1nc(-c2ccccc2)oc1C)C(=O)O` (stereo not shown) [Compound 1a] was tested, and the “CDC25B activity remaining, percent of control” value (Recombinant human CDC25B) was 106%, the “PP1 remaining activity, percent of control” value (PP1) was 121% and the PP2A remaining activity, % of control at 100 µM (PP2A) was 100%. For the same compound, the “PP3 remaining activity, percent of control” value (PP3) was 76%.
With `CCCCCCCCCC(=O)NC(CCC(=O)N(CCCCCC)CCNC(=O)c1nc(-c2ccccc2)oc1C)C(=O)O` (stereo not shown) [Compound 1b] the “CDC25B activity remaining, percent of control” value (Recombinant human CDC25B) was 44%, the “PP1 remaining activity, percent of control” value (PP1) was 59% and the PP2A remaining activity, % of control at 100 µM (PP2A) was 135%. The “PP3 remaining activity, percent of control” value (PP3) was 32%.
For `CCCCCCCCCC(=O)NC(CCC(=O)N(CCNC(=O)c1nc(-c2ccccc2)oc1C)Cc1ccccc1)C(=O)O` (stereo not shown) [Compound 1c], the “CDC25B activity remaining, percent of control” value (Recombinant human CDC25B) was 42%, the PP2A remaining activity, % of control at 100 µM (PP2A) was 129% and the “PP3 remaining activity, percent of control” value (PP3) was 28%.
For `CCCCCCCCCC(=O)NC(CCC(=O)N(CCCCCC)CCNC(=O)c1nc(-c2ccccc2)oc1-c1ccccc1)C(=O)O` (stereo not shown) [Compound 1e], the “CDC25B activity remaining, percent of control” value (Recombinant human CDC25B) was 17%, the “PP1 remaining activity, percent of control” value (PP1) was 153% and the PP2A remaining activity, % of control at 100 µM (PP2A) was 152%. The “PP3 remaining activity, percent of control” value (PP3) was 71%.
In the case of `Cc1oc(-c2ccccc2)nc1C(=O)NCCN(C)C(=O)CCC(NC(=O)CCc1ccccc1)C(=O)O` (stereo not shown) [Compound 1g], the “CDC25B activity remaining, percent of control” value (Recombinant human CDC25B) was 61%, the “PP1 remaining activity, percent of control” value (PP1) was 53% and the PP2A remaining activity, % of control at 100 µM (PP2A) was 109%. The “PP3 remaining activity, percent of control” value (PP3) was 21%.
With `Cc1oc(-c2ccccc2)nc1C(=O)NCCN(Cc1ccccc1)C(=O)CCC(NC(=O)CCc1ccccc1)C(=O)O` (stereo not shown) [Compound 1i] the “CDC25B activity remaining, percent of control” value (Recombinant human CDC25B) was 63%, the PP2A remaining activity, % of control at 100 µM (PP2A) was 80% and the “PP3 remaining activity, percent of control” value (PP3) was 14%.
With `CN(CCNC(=O)c1nc(-c2ccccc2)oc1-c1ccccc1)C(=O)CCC(NC(=O)CCc1ccccc1)C(=O)O` (stereo not shown) [Compound 1j] the “CDC25B activity remaining, percent of control” value (Recombinant human CDC25B) was 90%, the “PP1 remaining activity, percent of control” value (PP1) was 80% and the PP2A remaining activity, % of control at 100 µM (PP2A) was 72%. For the same compound, the “PP3 remaining activity, percent of control” value (PP3) was 38%.
In the case of `CCCCCCN(CCNC(=O)c1nc(-c2ccccc2)oc1-c1ccccc1)C(=O)CCC(NC(=O)CCc1ccccc1)C(=O)O` (stereo not shown) [Compound 1k], the “CDC25B activity remaining, percent of control” value (Recombinant human CDC25B) was 76%, the “PP1 remaining activity, percent of control” value (PP1) was 48% and the PP2A remaining activity, % of control at 100 µM (PP2A) was 67%. For the same compound, the “PP3 remaining activity, percent of control” value (PP3) was 24%.
`O=C(CCc1ccccc1)NC(CCC(=O)N(CCNC(=O)c1nc(-c2ccccc2)oc1-c1ccccc1)Cc1ccccc1)C(=O)O` (stereo not shown) [Compound 1l] was tested, and the “CDC25B activity remaining, percent of control” value (Recombinant human CDC25B) was 69%, the “PP1 remaining activity, percent of control” value (PP1) was 59% and the PP2A remaining activity, % of control at 100 µM (PP2A) was 69%. For the same compound, the “PP3 remaining activity, percent of control” value (PP3) was 22%.
In the case of `Cc1oc(-c2ccccc2)nc1C(=O)NCCN(C)C(=O)CCC(NC(=O)C=Cc1ccccc1)C(=O)O` (stereo not shown) [Compound 1m], the “CDC25B activity remaining, percent of control” value (Recombinant human CDC25B) was 45%, the “PP1 remaining activity, percent of control” value (PP1) was 111% and the PP2A remaining activity, % of control at 100 µM (PP2A) was 108%. The “PP3 remaining activity, percent of control” value (PP3) was 60%.
With `CCCCCCN(CCNC(=O)c1nc(-c2ccccc2)oc1C)C(=O)CCC(NC(=O)C=Cc1ccccc1)C(=O)O` (stereo not shown) [Compound 1n] the “CDC25B activity remaining, percent of control” value (Recombinant human CDC25B) was 66%, the “PP1 remaining activity, percent of control” value (PP1) was 40% and the PP2A remaining activity, % of control at 100 µM (PP2A) was 87%. The “PP3 remaining activity, percent of control” value (PP3) was 26%.
In the case of `Cc1oc(-c2ccccc2)nc1C(=O)NCCN(Cc1ccccc1)C(=O)CCC(NC(=O)C=Cc1ccccc1)C(=O)O` (stereo not shown) [Compound 1o], the “CDC25B activity remaining, percent of control” value (Recombinant human CDC25B) was 66%, the “PP1 remaining activity, percent of control” value (PP1) was 64% and the PP2A remaining activity, % of control at 100 µM (PP2A) was 88%. For the same compound, the “PP3 remaining activity, percent of control” value (PP3) was 13%.
`CN(CCNC(=O)c1nc(-c2ccccc2)oc1-c1ccccc1)C(=O)CCC(NC(=O)C=Cc1ccccc1)C(=O)O` (stereo not shown) [Compound 1p] was tested, and the “CDC25B activity remaining, percent of control” value (Recombinant human CDC25B) was 87%, the “PP1 remaining activity, percent of control” value (PP1) was 65% and the PP2A remaining activity, % of control at 100 µM (PP2A) was 99%. For the same compound, the “PP3 remaining activity, percent of control” value (PP3) was 68%.
In the case of `CCCCCCN(CCNC(=O)c1nc(-c2ccccc2)oc1-c1ccccc1)C(=O)CCC(NC(=O)C=Cc1ccccc1)C(=O)O` (stereo not shown) [Compound 1q], the “CDC25B activity remaining, percent of control” value (Recombinant human CDC25B) was 62%, the “PP1 remaining activity, percent of control” value (PP1) was 85% and the PP2A remaining activity, % of control at 100 µM (PP2A) was 60%. For the same compound, the “PP3 remaining activity, percent of control” value (PP3) was 28%.
With `O=C(C=Cc1ccccc1)NC(CCC(=O)N(CCNC(=O)c1nc(-c2ccccc2)oc1-c1ccccc1)Cc1ccccc1)C(=O)O` (stereo not shown) [Compound 1r] the “CDC25B activity remaining, percent of control” value (Recombinant human CDC25B) was 56%, the “PP1 remaining activity, percent of control” value (PP1) was 53% and the PP2A remaining activity, % of control at 100 µM (PP2A) was 68%. The “PP3 remaining activity, percent of control” value (PP3) was 15%.
